Paper PMC5303205, “Comparative studies on the multi-component pharmacokinetics of Aristolochiae Fructus and honey-fried Aristolochiae Fructus extracts after oral administration in rats” (BMC Complementary and Alternative Medicine, 2017)
Read-outs that look alike come from different tables or passages of the source.

Experiments:
[1] = Multi-component pharmacokinetics of AAs in rats after oral administration of AF and HAF extracts (HPLC-MS/MS of plasma); parameters: species or system Sprague–Dawley (SD) rats; settings: Sprague-Dawley, rat, in vivo
Description: An aliquot (100 μl) of rat plasma was spiked with 10.0 μL IS, and vortexed with 300 μL acetic ether for 10 s before the supernatant was transferred into centrifuge tube. The extraction was repeated with 200 μL acetic ether. The combined organic layer was evaporated to dryness under a gentle stream of nitrogen at RT. The residue was resolved in 100 μL methanol and centrifuged at 15,800 × g for 10 min. The supernatant was used for HPLC-MS/MS analysis.
Chromatographic separation was performed by an Acquity C18 column (4.6 × 100 mm,3.5 μm) (Agilent Technologies, USA). The mobile phase was composed of water (containing 10 mM ammonium formate and formic acid, pH 3.0) (solvent A) and ACN (solvent B). The gradient profile of B was: 0–10 min, 35–38%; 10–11 min, 38– 60%; 11–17 min, 60–35%B; 17–18 min, 35%. The flow rate was kept at 0.5 mL/min. The column oven was set at 30 °C and the injection volume was 10 μL.
The mass spectrometer was operated in the positive ion electrospray mode with multiple reaction monitoring (MRM). The optimal MS parameters were set at the following parameters: a desolvation gas temperature of 450 °C, desolvation gas flow of 10 L/min, a nebulizer gas of 40 psi and a capillary voltage of 4000 V. The mass spectrometry conditions of AA I, AA II, AA C, AA D, 7-OH AA I and IS are summarized in Additional file 1: Table S1.
The rats were randomly divided into 6 groups (low, middle and high doses of AF and HAF; n = 6). After a week of acclimation, the animals were fasted for 12 h with free access to water. Then, AF and HAF extracts were administered to the rats. The extracts were suspended in 0.5% CMC–Na solution, and the oral doses (according to AA I in the extracts) were 3.0 mg/kg, 8.0 mg/kg and 15.0 mg/kg, respectively.
Blood samples were collected from the ocular vein using dried heparinized tubes at 0, 0.083, 0.17, 0.33, 0.50, 0.67, 0.83, 1, 2, 4, 6, 8, 10, 12 and 24 h from the start. The animals received fluid replacement (sterile isotonic saline) after every two samplings since the fifth collecting. The samples were then immediately centrifuged at 3100 × g for 10 min. The plasma obtained was frozen and stored at –20 °C until analysis.
All statistical analyses were performed using the SPSS 11.0 software (Chicago, USA). P values <0.05 were considered statistically significant. Pharmacokinetic analysis was performed using the proprietary DAS 3.0 software (Mathematical Pharmacology Professional Committee of China, Shanghai, China).
After the oral administration of AF and HAF extracts, rat plasma samples were prepared and analyzed as described above. Five main AAs can be detected in rat blood with the proposed HPLC-MS/MS method. The mean pharmacokinetic parameters of five AAs in AF and HAF are summarized in Tables 4, 5 and Additional files 5, 6, 7: Tables S4-S6. The maximum concentration (C max) was the experimentally-observed value. The other pharmacokinetic parameters of the five analytes were fitted by DAS 3.0 software.

[2] = Stability of AAs in rat plasma (QC samples, HPLC-MS/MS); type: in vitro ADME; settings: n = 5; for Short-term stability (RSD/%): fresh rat plasma at room temperature for 24 h before sample preparation; for Post-preparation stability (RSD/%): prepared rat plasma samples at room temperature for 24 h; for Long-term stability (RSD/%): rat plasma stored at –20 °C for 14 days; for Freeze-thaw stability (RSD/%): rat plasma, three freeze-thaw cycles (–20 °C 24 h, thawed at room temperature)
Description: The QC samples were assayed under several different conditions to evaluate the stability of AAs in rat plasma. The freeze-thaw stability of the analyte was determined over three freeze-thaw cycles. In each freeze-thaw cycle, the samples were frozen and stored at –20 °C for 24 h, then thawed at room temperature. To evaluate the long-term stability of AAs, the plasma samples were stored at –20 °C for 14 days. For the short-term stability, fresh plasma samples were kept at room temperature for 24 h before the sample preparation. After keeping the samples at room temperature for 24 h, post-preparation stability was tested. Stability was evaluated by comparing the mean concentration of the stored samples with the mean concentration of those prepared freshly. The stability data were acceptable when the bias was within ±15% of the actual value.

[3] = 3 mg/kg, AF extract, low dose (3.0 mg/kg as AA I), analyte dose mg/kg: AA I 3.0, AA II 0.21, AA C 1.42, AA D 1.60, 7-OH AA I 2.33, n = 6
[4] = 3 mg/kg, HAF extract, low dose (3.0 mg/kg as AA I), analyte dose mg/kg: AA I 3.0, AA II 0.26, AA C 1.53, AA D 1.51, 7-OH AA I 2.48, n = 6
[5] = 8 mg/kg, AF extract, mid dose (8.0 mg/kg as AA I), analyte dose mg/kg: AA I 8.0, AA II 0.56, AA C 3.78, AA D 4.26, 7-OH AA I 6.22, n = 6
[6] = 8 mg/kg, HAF extract, mid dose (8.0 mg/kg as AA I), analyte dose mg/kg: AA I 8.0, AA II 0.69, AA C 4.09, AA D 4.03, 7-OH AA I 6.62, n = 6
[7] = 15 mg/kg, AF extract, high dose (15.0 mg/kg as AA I), analyte dose mg/kg: AA I 15.0, AA II 1.05, AA C 7.09, AA D 8.00, 7-OH AA I 11.66, n = 6
[8] = 15 mg/kg, HAF extract, high dose (15.0 mg/kg as AA I), analyte dose mg/kg: AA I 15.0, AA II 1.29, AA C 7.66, AA D 7.56, 7-OH AA I 12.41, n = 6
[9] = high QC conc ng/mL: AA I 1830, AA II 3200, AA C 2980, AA D 3680, 7-OH AA I 3280
[10] = low QC conc ng/mL: AA I 1.83, AA II 8.00, AA C 186.3, AA D 36.8, 7-OH AA I 82.0
[11] = middle QC conc ng/mL: AA I 457.5, AA II 400, AA C 372.5, AA D 460, 7-OH AA I 410

SMILES: COc1cccc2c1cc([N+](=O)[O-])c1c(C(=O)O)cc3c(c12)OCO3 [AA I]
- AUC(0-inf) [1, 3]: 6080 ± 1260 ng·h/mL
- Cmax [1, 3]: 1700 ± 571 ng/mL
- Tmax [1, 3]: 0.5 ± 0.09 h
- CL/F ([1]; 3 mg/kg, AF extract, low dose (3.0 mg/kg as AA I), analyte dose mg/kg: AA I 3.0, AA II 0.21, AA C 1.42, AA D 1.60, 7-OH AA I 2.33, n = 6, read-out: CLz/F (converted)): 9.5 mL/min/kg
- Vd/F ([1]; 3 mg/kg, AF extract, low dose (3.0 mg/kg as AA I), analyte dose mg/kg: AA I 3.0, AA II 0.21, AA C 1.42, AA D 1.60, 7-OH AA I 2.33, n = 6, read-out: Vz/F): 2.85 ± 0.15 L/kg
- half-life ([1]; 3 mg/kg, AF extract, low dose (3.0 mg/kg as AA I), analyte dose mg/kg: AA I 3.0, AA II 0.21, AA C 1.42, AA D 1.60, 7-OH AA I 2.33, n = 6, read-out: t 1/2z (converted)): 3.5 ± 0.5 h
- AUC(0-inf) [1, 4]: 5230 ± 896 ng·h/mL
- Cmax [1, 4]: 1070 ± 223 ng/mL
- Tmax [1, 4]: 0.39 ± 0.08 h
- CL/F ([1]; 3 mg/kg, HAF extract, low dose (3.0 mg/kg as AA I), analyte dose mg/kg: AA I 3.0, AA II 0.26, AA C 1.53, AA D 1.51, 7-OH AA I 2.48, n = 6, read-out: CLz/F (converted)): 9.83 mL/min/kg
- Vd/F ([1]; 3 mg/kg, HAF extract, low dose (3.0 mg/kg as AA I), analyte dose mg/kg: AA I 3.0, AA II 0.26, AA C 1.53, AA D 1.51, 7-OH AA I 2.48, n = 6, read-out: Vz/F): 2.75 ± 0.24 L/kg
- half-life ([1]; 3 mg/kg, HAF extract, low dose (3.0 mg/kg as AA I), analyte dose mg/kg: AA I 3.0, AA II 0.26, AA C 1.53, AA D 1.51, 7-OH AA I 2.48, n = 6, read-out: t 1/2z (converted)): 3.22 ± 0.46 h
- AUC(0-inf) [1, 5]: 12800 ± 1860 ng·h/mL
- Cmax [1, 5]: 3820 ± 450 ng/mL
- Tmax [1, 5]: 0.56 ± 0.09 h
- CL/F ([1]; 8 mg/kg, AF extract, mid dose (8.0 mg/kg as AA I), analyte dose mg/kg: AA I 8.0, AA II 0.56, AA C 3.78, AA D 4.26, 7-OH AA I 6.22, n = 6, read-out: CLz/F (converted)): 10.8 mL/min/kg
- Vd/F ([1]; 8 mg/kg, AF extract, mid dose (8.0 mg/kg as AA I), analyte dose mg/kg: AA I 8.0, AA II 0.56, AA C 3.78, AA D 4.26, 7-OH AA I 6.22, n = 6, read-out: Vz/F): 5.4 ± 0.48 L/kg
- half-life ([1]; 8 mg/kg, AF extract, mid dose (8.0 mg/kg as AA I), analyte dose mg/kg: AA I 8.0, AA II 0.56, AA C 3.78, AA D 4.26, 7-OH AA I 6.22, n = 6, read-out: t 1/2z (converted)): 5.58 ± 0.65 h
- AUC(0-inf) [1, 6]: 8990 ± 1780 ng·h/mL
- Cmax [1, 6]: 2000 ± 313 ng/mL
- Tmax [1, 6]: 0.42 ± 0.08 h
- CL/F ([1]; 8 mg/kg, HAF extract, mid dose (8.0 mg/kg as AA I), analyte dose mg/kg: AA I 8.0, AA II 0.69, AA C 4.09, AA D 4.03, 7-OH AA I 6.62, n = 6, read-out: CLz/F (converted)): 11.3 mL/min/kg
- Vd/F ([1]; 8 mg/kg, HAF extract, mid dose (8.0 mg/kg as AA I), analyte dose mg/kg: AA I 8.0, AA II 0.69, AA C 4.09, AA D 4.03, 7-OH AA I 6.62, n = 6, read-out: Vz/F): 4.58 ± 0.37 L/kg
- half-life ([1]; 8 mg/kg, HAF extract, mid dose (8.0 mg/kg as AA I), analyte dose mg/kg: AA I 8.0, AA II 0.69, AA C 4.09, AA D 4.03, 7-OH AA I 6.62, n = 6, read-out: t 1/2z (converted)): 4.72 ± 0.52 h
- AUC(0-inf) [1, 7]: 26800 ± 3260 ng·h/mL
- Cmax [1, 7]: 5890 ± 426 ng/mL
- Tmax [1, 7]: 0.69 ± 0.1 h
- CL/F ([1]; 15 mg/kg, AF extract, high dose (15.0 mg/kg as AA I), analyte dose mg/kg: AA I 15.0, AA II 1.05, AA C 7.09, AA D 8.00, 7-OH AA I 11.66, n = 6, read-out: CLz/F (converted)): 14.5 mL/min/kg
- Vd/F ([1]; 15 mg/kg, AF extract, high dose (15.0 mg/kg as AA I), analyte dose mg/kg: AA I 15.0, AA II 1.05, AA C 7.09, AA D 8.00, 7-OH AA I 11.66, n = 6, read-out: Vz/F): 7.13 ± 0.57 L/kg
- half-life ([1]; 15 mg/kg, AF extract, high dose (15.0 mg/kg as AA I), analyte dose mg/kg: AA I 15.0, AA II 1.05, AA C 7.09, AA D 8.00, 7-OH AA I 11.66, n = 6, read-out: t 1/2z (converted)): 5.46 ± 0.53 h
- AUC(0-inf) [1, 8]: 11800 ± 1770 ng·h/mL
- Cmax [1, 8]: 3470 ± 352 ng/mL
- Tmax [1, 8]: 0.47 ± 0.08 h
- CL/F ([1]; 15 mg/kg, HAF extract, high dose (15.0 mg/kg as AA I), analyte dose mg/kg: AA I 15.0, AA II 1.29, AA C 7.66, AA D 7.56, 7-OH AA I 12.41, n = 6, read-out: CLz/F (converted)): 12 mL/min/kg
- Vd/F ([1]; 15 mg/kg, HAF extract, high dose (15.0 mg/kg as AA I), analyte dose mg/kg: AA I 15.0, AA II 1.29, AA C 7.66, AA D 7.56, 7-OH AA I 12.41, n = 6, read-out: Vz/F): 5.53 ± 0.52 L/kg
- half-life ([1]; 15 mg/kg, HAF extract, high dose (15.0 mg/kg as AA I), analyte dose mg/kg: AA I 15.0, AA II 1.29, AA C 7.66, AA D 7.56, 7-OH AA I 12.41, n = 6, read-out: t 1/2z (converted)): 5.32 ± 0.54 h
- Short-term stability (RSD/%) [2, 9]: 6.5%
- Short-term stability (RSD/%) [2, 10]: 0.58%
- Short-term stability (RSD/%) [2, 11]: 8.7%
- Post-preparation stability (RSD/%) [2, 9]: 4.5%
- Post-preparation stability (RSD/%) [2, 10]: 0.65%
- Post-preparation stability (RSD/%) [2, 11]: 2.0%
- Long-term stability (RSD/%) [2, 9]: 7.6%
- Long-term stability (RSD/%) [2, 10]: 0.28%
- Long-term stability (RSD/%) [2, 11]: 6.9%
- Freeze-thaw stability (RSD/%) [2, 9]: 12.9%
- Freeze-thaw stability (RSD/%) [2, 10]: 1.1%
- Freeze-thaw stability (RSD/%) [2, 11]: 10.3%
